Reference: patent publication US12653190B2, “Heteroaryl-triazole compounds as pesticides” (Bayer Aktiengesellschaft, priority 2020, dated 2026)

Experiments:
Assay type in all cases: in vivo
[1] = system: Rhipicephalus (Boophilus) microplus larvae (strain Parkhurst, resistant against synthetic pyrethroids); experiment: Rhipicephalus (Boophilus) microplus in-vitro contact test, larval cattle tick; details: 5 μg/cm^2 (=500 g/ha), after 48 hours, read-out: efficacy (larvae dead or moribund)
Experimental: Rhipicephalus (Boophilus) microplus—In-Vitro Contact Tests Larval Cattle Tick (Strain Parkhurst, Resistant Against Synthetic Pyrethroids)
(§1) 9 mg compound is solved in 1 mL acetone and diluted with acetone to the desired concentration. 250 μL of the test solution is filled in 25 mL glass test tubes and homogeneously distributed on the inner walls by rotation and tilting on a shaking device (2 h at 30 rpm). With a compound concentration of 900 ppm, an inner surface of 44.7 cm^2 and a homogeneous distribution, a dose of 5 μg/cm^2 is achieved.
After the solvent has evaporated, each test tube is filled with 20-50 cattle tick larvae (Rhipicephalus microplus), closed with a perforated lid and incubated in a horizontal position at 85% relative humidity and 27° C. in an incubator. After 48 hours efficacy is determined. The larvae are patted on the ground of the tubes and negative geotactic behavior is recorded.
An efficacy of 100% means all larvae are dead or moribund; 0% means no larvae are dead or moribund.

[2] = system: adult engorged female ticks (Rhipicephalus microplus); experiment: Rhipicephalus (Boophilus) microplus injection test; details: 168 h, egg deposition monitored after 7 days, read-out: efficacy (infertile eggs); for pest or weed control at 20 µg/tick: 20 μg/tick injected; for pest or weed control at 4 µg/tick: 4 μg/tick injected
Experimental: Rhipicephalus (Boophilus) microplus—Iniectiontest
(§2) • Solvent: dimethyl sulfoxide
To produce a suitable preparation of active compound, 10 mg of active compound are dissolved in 0.5 mL solvent, and the concentrate is diluted with solvent to the desired concentration.
Five adult engorged female ticks (Rhipicephalus microplus) are injected with 1 μL compound solution into the abdomen. The ticks are transferred into replica plates and incubated in a climate chamber.
After 7 days egg deposition of fertile eggs is monitored. Eggs where fertility is not visible are stored in a climate chamber till hatching after about 42 days. An efficacy of 100% means all eggs are infertile; 0% means all eggs are fertile.

[3] = system: adult unfed cat fleas (Ctenocephalides felis); experiment: Ctenocephalides felis oral test; details: 48 h, 100 ppm in cattle blood, after 2 days
Experimental: Ctenocephalides felis—Oral Test
as §2
To produce a suitable preparation of active compound, 10 mg of active compound are dissolved in 0.5 mL solvent, and the concentrate is diluted with cattle blood to the desired concentration.
Approximately 20 adult unfed cat fleas (Ctenocephalides felts) are placed in flea chambers. The blood chamber, sealed with parafilm on the bottom, are filled with cattle blood supplied with compound solution and placed on the gauze covered top of the flea chamber, so that the fleas are able to suck the blood. The blood chamber is heated to 37° C. whereas the flea chamber is kept at room temperature.
After 2 days mortality in % is determined. 100% means all the fleas have been killed; 0% means none of the fleas have been killed.

[4] = system: fall armyworm larvae (Spodoptera frugiperda); experiment: Spodoptera frugiperda spray test; details: in Zea mays, 168 h
Experimental: Spodoptera frugiperda—Spray Test
(§3) • Solvent: 78.0 parts by weight acetone • 1.5 parts by weight dimethylformamide • Emulsifier: alkylarylpolyglycol ether
(§4) To produce a suitable preparation of active compound, 1 part by weight of active compound is mixed with the stated amount of solvents and is diluted with water, containing an emulsifier concentration of 1000 ppm, to the desired concentration. Further test concentrations are prepared by dilution with emulsifier containing water.
Maize (Zea mays) leaf sections are sprayed with a preparation of the active ingredient of the desired concentration. Once dry, the leaf sections are infested with fall armyworm larvae (Spodoptera frugiperda). After 7 days mortality in % is determined. 100% means all caterpillars have been killed and 0% means none of the caterpillars have been killed.

[5] = system: larvae of the banded cucumber beetle (Diabrotica balteata); experiment: Diabrotica balteata spray test; details: 168 h, after 7 days, wheat seeds, read-out: efficacy (seedling growth); for pest or weed control at 32 µg/disc, 100 g/ha: 100 g/ha (=32 μg/well)
Experimental: Diabrotica balteata—Spray Test
(§5) • Solvent: 78.0 parts by weight of acetone • 1.5 parts by weight of dimethylformamide • Emulsifier: alkylarylpolyglycol ether
as §4, with “solvent,” for “solvents”, “and the concentrate” for “and”
Soaked wheat seeds (Triticum aestivum) are placed in a multiple well plate filled with agar and some water and are incubated for 1 day to germinate (5 seeds per well). The germinated wheat seeds are sprayed with a test solution containing the desired concentration of the active ingredient. Afterwards each unit is infected with 10-20 larvae of the banded cucumber beetle (Diabrotica balteata).
After 7 days efficacy in % is determined. 100% means all the seedlings have grown up like in the untreated, uninfected control; 0% means none of the seedlings have grown.

[6] = system: adult brown dog ticks (Rhipicephalus sanguineus); experiment: Rhipicephalus sanguineus in-vitro contact test, adult brown dog ticks; details: 5 μg/cm^2 (=500 g/ha), after 48 hours, read-out: efficacy (ticks dead or moribund)
Experimental: Rhipicephalus sanguineus—In-Vitro Contact Tests with Adult Brown Dog Ticks
as §1
(§6) After the solvent has evaporated, each test tube is filled with 5-10 adult brown dog ticks (Rhipicephalus sanguineus), closed with a perforated lid and incubated in a lying position at room temperature and relative humidity. After 48 hours efficacy is determined. The ticks are patted on the ground of the tubes and are incubated on a heating plate at 45-50° C. for at most 5 minutes Immotile or uncoordinated moving ticks, which are not able to escape the heat by climbing upwards, are marked as dead or moribund.
An efficacy of 100% means all ticks are dead or moribund; 0% means no ticks are dead or moribund.

[7] = system: larvae of the southern green stink bug (Nezara viridula); experiment: Nezara viridula spray test; details: 96 h, after 4 days, barley plants
Experimental: Nezara viridula—Spray Test
as §5
as §4, with “solvent,” for “solvents”, “and the concentrate” for “and”
Barley plants (Hordeum vulgare) are sprayed with a test solution containing the desired concentration of the active ingredient and are infested with larvae of the southern green stink bug (Nezara viridula).
After 4 days mortality in % is determined. 100% means all the stink bugs have been killed; 0% means none of the stink bugs have been killed.

[8] = system: adult cat fleas (Ctenocephalides felis); experiment: Ctenocephalides felis in-vitro contact test, adult cat flea; details: 5 μg/cm^2 (=500 g/ha), after 48 hours, read-out: efficacy (fleas dead or moribund)
Experimental: Ctenocephalides felis—In-Vitro Contact Tests Adult Cat Flea
as §1
as §6, with “cat fleas (Ctenocephalides felis),” for “brown dog ticks (Rhipicephalus sanguineus),”, “fleas” for “ticks”, “fleas,” for “ticks,”
An efficacy of 100% means all fleas are dead or moribund; 0% means no fleas are dead or moribund.

[9] = system: green peach aphid (Myzus persicae); experiment: Myzus persicae spray test; details: foliar, 120 h, after 5 days, Chinese cabbage leaf disks
Experimental: Myzus persicae—Spray Test
as §3, §4
Chinese cabbage (Brassica pekinensis) leaf disks infected with all instars of the green peach aphid (Myzus persicae), are sprayed with a preparation of the active ingredient of the desired concentration.
After 5 days mortality in % is determined. 100% means all aphids have been killed and 0% means none of the aphids have been killed.

CC(C#N)c1cccc(C(=O)N[C@@H](C)c2ncnn2-c2ccc(C#N)cn2)c1 (some centres unmarked) [Example I-1]
pest or weed control at 5 µg/cm2, 5 µg/cm2 [1]: 90%
pest or weed control at 20 µg/tick [2]: 100%
mortality at 100 ppm [3]: 100%

C[C@H](NC(=O)c1cccc(CC#N)c1)c1ncnn1-c1ccc(C#N)cn1 [Example I-2]
pest or weed control at 5 µg/cm2, 5 µg/cm2 [1]: 80%
pest or weed control at 4 µg/tick [2]: 100%
pest or weed control at 20 µg/tick [2]: 100%
mortality at 100 ppm [3]: 100%

Cc1cc(OCC2CC2)cc(C(=O)N[C@@H](C)c2ncnn2-c2ccc(C#N)cn2)c1 [Example I-3, N-{(1S)-1-[1-(5-Cyanopyridin-2-yl)-1H-1,2,4-triazol-5-yl]ethyl}-3-(cyclopropylmethoxy)-5-methylbenzamide]
mortality at 500 g/ha [4]: 100%
pest or weed control at 4 µg/tick [2]: 100%
pest or weed control at 20 µg/tick [2]: 100%
mortality at 100 ppm [3]: 100%

Cc1cc(OC2CCC2)cc(C(=O)N[C@@H](C)c2ncnn2-c2ccc(C#N)cn2)c1 [Example I-5, N-{(1S)-1-[1-(5-Cyanopyridin-2-yl)-1H-1,2,4-triazol-5-yl]ethyl}-3-(cyclobutyloxy)-5-methylbenzamide]
pest or weed control at 160 µg/disc, 500 g/ha ([5]; 500 g/ha (=160 μg/well)): 100%
pest or weed control at 20 µg/tick [2]: 100%
mortality at 100 ppm [3]: 100%

Cc1nc([C@H](C)NC(=O)c2cc(OC(C)c3ccc(Cl)cc3)cc(C(F)(F)F)c2)n(-c2ccc(C#N)cn2)n1 (stereo partly drawn) [Example I-15, 3-[1-(4-Chlorophenyl)ethoxy]-N-{(1S)-1-[1-(5-cyanopyridin-2-yl)-3-methyl-1H-1,2,4-triazol-5-yl]ethyl}-5-(trifluoromethyl)benzamide]
pest or weed control at 32 µg/disc, 100 g/ha [5]: 100%
pest or weed control at 5 µg/cm2, 5 µg/cm2 [6]: 80%
pest or weed control at 4 µg/tick [2]: 100%
pest or weed control at 20 µg/tick [2]: 100%

Cc1nc([C@H](C)NC(=O)c2cc(OCC3CCOCC3)cc(C(F)(F)F)c2)n(-c2ccc(C#N)cn2)n1 [Example I-19, N-{(1S)-1-[1-(5-Cyanopyridin-2-yl)-3-methyl-1H-1,2,4-triazol-5-yl]ethyl}-3-(tetrahydro-2H-pyran-4-ylmethoxy)-5-(trifluoromethyl)benzamide]
pest or weed control at 5 µg/cm2, 5 µg/cm2 [1]: 100%
pest or weed control at 4 µg/tick [2]: 100%
mortality at 100 ppm [3]: 80%

Cc1nc([C@H](C)NC(=O)c2cc(OC3CCOCC3)cc(C(F)(F)F)c2)n(-c2ccc(C#N)cn2)n1 [Example I-21, N-{(1S)-1-[1-(5-Cyanopyridin-2-yl)-3-methyl-1H-1,2,4-triazol-5-yl]ethyl}-3-(tetrahydro-2H-pyran-4-yloxy)-5-(trifluoromethyl)benzamide]
mortality at 100 g/ha [4]: 83%
pest or weed control at 5 µg/cm2, 5 µg/cm2 [6]: 80%
pest or weed control at 5 µg/cm2, 5 µg/cm2 [1]: 100%

C[C@H](NC(=O)c1cc(C(F)(F)F)cc(C(C)(C)C#N)c1)c1ncnn1-c1cnc(C#N)cn1 [Example I-58]
mortality at 100 g/ha [4]: 100%
mortality at 100 g/ha [7]: 100%
mortality at 500 g/ha [7]: 100%
pest or weed control at 5 µg/cm2, 5 µg/cm2 [8]: 100%
pest or weed control at 32 µg/disc, 100 g/ha [5]: 100%
mortality at 100 g/ha [9]: 90%
pest or weed control at 5 µg/cm2, 5 µg/cm2 [6]: 80%
pest or weed control at 5 µg/cm2, 5 µg/cm2 [1]: 100%

C[C@H](NC(=O)c1cc(Br)cc(C(F)(F)C2CC2)c1)c1ncnn1-c1cnc(C#N)cn1 [Example I-59]
mortality at 100 g/ha [4]: 100%
mortality at 100 g/ha [7]: 100%
mortality at 500 g/ha [7]: 100%
pest or weed control at 5 µg/cm2, 5 µg/cm2 [8]: 80%
pest or weed control at 32 µg/disc, 100 g/ha [5]: 100%
mortality at 100 g/ha [9]: 90%
pest or weed control at 5 µg/cm2, 5 µg/cm2 [6]: 100%
pest or weed control at 5 µg/cm2, 5 µg/cm2 [1]: 100%

C[C@H](NC(=O)c1cc(Br)cc(OC(C)(C)C#N)c1)c1ncnn1-c1ncc(C#N)s1 [Example I-60]
mortality at 100 g/ha [4]: 100%
pest or weed control at 5 µg/cm2, 5 µg/cm2 [8]: 80%
pest or weed control at 32 µg/disc, 100 g/ha [5]: 100%
pest or weed control at 5 µg/cm2, 5 µg/cm2 [1]: 100%
